Results from patent US20260015339A1, “CALIX[4]ARENES WITH HIGH ANTICANCER ACTIVITY” (UNIVERSITE GRENOBLE ALPES, priority 2023, published 2026).
In brackets after ≈: the same amount, converted by molar mass.

Key:
Assay type in all cases: cell-based
DLD-1 = assay: PROLiFiler-Cell Panel Screening (CellTiterGlo); settings: Homo sapiens; Colon, DLD-1, 72 hours
Description: (§1) For the assays, cells were seeded in white cell culture-treated flat and clear bottom 384-well multiwall plates and incubated at 37° C. overnight before the calix[4]arene of the formula (2) or the reference compound were added. After incubation for 72 hours at 37° C. at 5% or 10% CO2 depending on the medium, cell plates were equilibrated to room temperature (i.e. 20° C.) for one hour, CellTiterGlo® reagent from the firm Promega was added and luminescence was measured approximately an hour later using a luminometer.
(§2) Raw data were converted into percent cell viability relative to the high and low control, which were set to 100% and 0%, respectively.

HCT116 = assay: PROLiFiler-Cell Panel Screening (CellTiterGlo); settings: Homo sapiens, HCT-116; Colon, HCT116, 72 hours
Description: as §1, §2

H460 = assay: PROLiFiler-Cell Panel Screening (CellTiterGlo); settings: Homo sapiens, NCI-H460; Lung, H460, 72 hours
Description: as §1, §2

HeLa = assay: PROLiFiler-Cell Panel Screening (CellTiterGlo); settings: Homo sapiens, Cervix, 72 hours
Description: as §1, §2

MOLM-13 = assay: PROLiFiler-Cell Panel Screening (CellTiterGlo); settings: Homo sapiens; Blood, MOLM-13, 72 hours
Description: as §1, §2

NCI-H1838 = assay: PROLiFiler-Cell Panel Screening (CellTiterGlo); settings: Homo sapiens; Lung, NCI-H1838, 72 hours
Description: as §1, §2

Colo 205 = assay: PROLiFiler-Cell Panel Screening (CellTiterGlo); settings: Homo sapiens; Colon, Colo 205, 72 hours
Description: as §1, §2

LOU-NH91 = assay: PROLiFiler-Cell Panel Screening (CellTiterGlo); settings: Lung, LOU-NH91, 72 hours
Description: as §1, §2

HCC 1569 = assay: PROLiFiler-Cell Panel Screening (CellTiterGlo); settings: Homo sapiens, HCC1569; Breast, HCC 1569, 72 hours
Description: as §1, §2

SW480 = assay: PROLiFiler-Cell Panel Screening (CellTiterGlo); settings: Homo sapiens; Colon, SW480, 72 hours
Description: as §1, §2

U2OS = assay: PROLiFiler-Cell Panel Screening (CellTiterGlo); settings: Homo sapiens, Bone, 72 hours
Description: as §1, §2

T98G = assay: PROLiFiler-Cell Panel Screening (CellTiterGlo); settings: Homo sapiens, Brain, 72 hours
Description: as §1, §2

U118MG = assay: PROLiFiler-Cell Panel Screening (CellTiterGlo); settings: Homo sapiens, U-118-MG, Brain, 72 hours
Description: as §1, §2

SiHa = assay: PROLiFiler-Cell Panel Screening (CellTiterGlo); settings: Homo sapiens, Cervix, 72 hours
Description: as §1, §2

U87MG = assay: PROLiFiler-Cell Panel Screening (CellTiterGlo); settings: Homo sapiens, U-87 MG, Brain, 72 hours
Description: as §1, §2

Hep3B2.1-7 = assay: PROLiFiler-Cell Panel Screening (CellTiterGlo); settings: Liver, Hep3B2.1-7, 72 hours
Description: as §1, §2

HCT-15 = assay: PROLiFiler-Cell Panel Screening (CellTiterGlo); settings: Homo sapiens; Colon, HCT-15, 72 hours
Description: as §1, §2

H1299 = assay: PROLiFiler-Cell Panel Screening (CellTiterGlo); settings: Homo sapiens, NCI-H1299; Lung, H1299, 72 hours
Description: as §1, §2

HT-29 = assay: PROLiFiler-Cell Panel Screening (CellTiterGlo); settings: Homo sapiens; Colon, HT-29, 72 hours
Description: as §1, §2

MKN-1 = assay: PROLiFiler-Cell Panel Screening (CellTiterGlo); settings: Homo sapiens; Stomach, MKN-1, 72 hours
Description: as §1, §2

HCC38 = assay: PROLiFiler-Cell Panel Screening (CellTiterGlo); settings: Homo sapiens; Breast, HCC38, 72 hours
Description: as §1, §2

U251MG = assay: PROLiFiler-Cell Panel Screening (CellTiterGlo); settings: Homo sapiens, U-251, Brain, 72 hours
Description: as §1, §2

T84 = assay: PROLiFiler-Cell Panel Screening (CellTiterGlo); settings: Homo sapiens; Colon, T84, 72 hours
Description: as §1, §2

Non-malignant MSC cells = assay: MTS cytotoxicity assay on MSC; settings: 72 hours of treatment
Description: After 72 hours of treatment, the cytotoxicity was measured by means of the IC50 value, using the kit “CellTiter 96R AQuous One Solution Cell Proliferation Assay (MTS)” from Promega™. Following 30 minutes of incubation with the MTS reagent, the endpoint measurements were done in triplicate at 485 nm, using a fluorescence plate reader.

[1] = test system: methicillin resistant Staphylococcus aureus; assay: Minimal inhibitory concentration, bacterial growth in 96 well plate; settings: MRSA, with 100 μM CuSO4
Description: The efficiency of a compound of interest on a bacterial strain is evaluated by measuring its minimal inhibitory concentration (hereafter abbreviated “MIC”). MICs are measured by following the bacterial growth in a 96 wells plate exposed to a range of concentrations of the compound of interest.
A small amount of the frozen bacteria (stored at −80° C. in glycerol) was mixed in 25 mL of Lysogeny broth (i.e. a nutritionally rich medium used for the growth of bacteria which comprises 10 g of tryptone, 5 g of yeast extract, 10 g of NaCl, and 1 L of distilled water; with the pH adjusted to 7.0 with 1 N NaOH; and autoclaved for 25 min at 120° C.) in a falcon tube and then placed in an incubation chamber at 180 rpm and 37° C. After 16 to 24 hours, 25 mL of Lysogeny broth was added to the growth media and placed back in the incubation chamber for two hours. The absorption of the resulting solution was measured at 600 nm (hereafter abbreviated “OD600”) using Lysogeny broth as blank and then the solution was diluted to 0.1±0.01.
96 Well plates were filled with 20 μL of 1 mM CuSO4 solution, then 160 μL of growth media was added. Finally, 20 μL of DMSO solutions containing a range of concentrations of the tested calix[4]arene of the formula (2) was added. […] For each condition three wells were used. The top and bottom rows were used as control, the top row only contained Lysogeny broth and the bottom one contained the growth media, DMSO and CuSO4. The plates were placed in the incubator for 16 to 24 hours. The absorbance of each well was measured at 600 nm with a multiplate reader (Fluostar from Optima).
The ratio between the average absorption value of three wells (OD) with the same conditions minus the average of the 12 negative controls (OD(negative)) and the average of the 12 positive control (OD(positive)) minus the negative control yielded the growth value which was subtracted from one and multiplied by a hundred to give the inhibition percentage (Equation 1).
The MIC50 or MIC90 is defined by the lowest concentration for which the inhibition value is at/over 50 or 90%. For a given experimental conditions three rows are used in a plate. The whole process was also repeated three times to obtain triplicates. MIC values were the determined by the average values obtained.

CCCOc1c2cccc1Cc1cccc(c1OCc1nccn1C)Cc1cccc(c1OCCC)Cc1cccc(c1OCc1nccn1C)C2 [(2)]
IC50 (DLD-1): 1080 nM
IC50 (HCT116): 950 nM
IC50 (H460): 727 nM
IC50 (HeLa): 1700 nM
IC50 (MOLM-13): 1710 nM
IC50 (NCI-H1838): 3480 nM
IC50 (Colo 205): 1810 nM
IC50 (LOU-NH91): 652 nM
IC50 (HCC 1569): 2960 nM
IC50 (SW480): 1520 nM
IC50 (U2OS): 1060 nM
IC50 (T98G): 3110 nM
IC50 (U118MG): 2030 nM
IC50 (SiHa): 1250 nM
IC50 (U87MG): 2460 nM
IC50 (Hep3B2.1-7): 781 nM
IC50 (HCT-15): 2020 nM
IC50 (H1299): 1300 nM
IC50 (HT-29): 1200 nM
IC50 (MKN-1): 2160 nM
IC50 (HCC38): 2530 nM
IC50 (U251MG): 3530 nM
IC50 (T84): 2440 nM
IC50 (Non-malignant MSC cells): 1010 nM
MIC50 [1]: 0.8 µM (≈ 0.558 µg/mL)
MIC90 [1]: 0.8 µM (≈ 0.558 µg/mL)

CC(C)C[C@H](NC(=O)[C@H](Cc1ccccc1)NC(=O)c1cnccn1)B(O)O [bortezomib, reference compound]
IC50 (DLD-1): 6.83 nM
IC50 (HCT116): 6.78 nM
IC50 (H460): 28.8 nM
IC50 (HeLa): 18.7 nM
IC50 (MOLM-13): 3.91 nM
IC50 (NCI-H1838): 34.1 nM
IC50 (Colo 205): 6.79 nM
IC50 (LOU-NH91): 7.04 nM
IC50 (HCC 1569): 5.15 nM
IC50 (SW480): 5.29 nM
IC50 (U2OS): 5.83 nM
IC50 (T98G): 11.4 nM
IC50 (U118MG): 4.14 nM
IC50 (SiHa): 7.41 nM
IC50 (U87MG): 8.02 nM
IC50 (Hep3B2.1-7): 7.98 nM
IC50 (HCT-15): 9.25 nM
IC50 (H1299): 8.42 nM
IC50 (HT-29): 5.99 nM
IC50 (MKN-1): 4.32 nM
IC50 (HCC38): 5.41 nM
IC50 (U251MG): 9.16 nM
IC50 (T84): 12.1 nM
